Test results reported in article PMC10180065, “Mechanistic Studies of Arene–Ruthenium(II) Complexes with Carbothioamidopyrazoles as Alternative Cancer Drugs” (Molecules, 2023).
Read-outs that look alike come from different tables or passages of the source.

What was measured:
Hep 3b = test: MTT cytotoxicity, Hep 3b; type: cell-based, human; conditions: 48 h incubation, read-out: Cytotoxic effect, IC50
Method: (§1) Cytotoxicity was evaluated against fifteen adherent human cancer cell lines using the MTT test: colorectal adenocarcinoma cells Caco2 (ATCC® HTB-37™), colorectal adenocarcinoma cells HT29 (ATCC® HTB-38™), colon colorectal carcinoma HCT116 (ATCC® CCL-247™), colon adenocarcinoma COLO205 (ATCC® CCL-222™), colorectal adenocarcinoma SW620 (ATCC® CCL-227™), colorectal adenocarcinoma grade IV LoVo (ATCC® CCL-229™), hepatocellular carcinoma Hep 3b (ATCC® HB-8064™), endometrium adenocarcinoma HEC1A (ATCC® HTB-112™), Ishikawa (99040201; Sigma–Aldrich Sigma, St. Louis, MO, USA), cervical adenocarcinoma cells HeLa (ATCC® CCL-2™), lung epithelial carcinoma A549 (ATCC® CRM-CCL-185™), breast epithelial adenocarcinoma cell positive for estrogen and progesterone receptors MCF7 (ATCC® HTB-22™) and negative for expression of estrogen receptor HCC38 (ATCC® CRL-2314™), acute promyelocytic leukemia HL-60 (ATCC® CCL-240™), skin melanoma WM115 (ATCC® CRL-1676™), and 1 suspension cancer cell line: acute lymphoblastic leukemia NALM6 (purchased from the German Collection of Microorganisms and Cell Cultures). HT29, NALM6, HCC-38 and HL-60 cells were cultured in RPMI 1640 medium (Thermo Fisher Scientific, Waltham, MA, USA) supplemented with 10% fetal bovine serum and antibiotic (gentamicin 25 μg ml^−1) (Gibco, Grand Island, New York, NY, USA). For the remaining tumor cell lines, Dulbecco’s minimal essential medium (DMEM, Lonza, Visp, Switzerland) supplemented with 10% fetal bovine serum and antibiotic instead of RPMI 1640 was used. In addition, Human Microvascular Endothelial Cells (HMEC1), which were obtained from the American Type Culture Collection (Manassas, VA, USA), were used as a model of normal cells. HMEC-1 were cultured in MCDB131 medium (Corning Life Sciences, Corning, NY, USA), supplemented with 10% fetal bovine serum, 10 ng/mL Epidermal Growth Factor (Millipore, Burlington, MA, USA) and 10 mM glutamine (Corning Life Sciences). All cells were grown at 37 °C in humidified atmosphere of 5% CO2 in air. The exponential growth of cells was maintained by regular passaging at 90% confluence three times a week using 0.025% trypsin/EDTA (Gibco, Grand Island, New York, NY, USA).
(§2) The cytotoxicity was tested by a standard MTT [3-(4,5-dimethylthiazol-2-yl)-2,5-diphenyltetrazolium bromide] (Sigma, St. Louis, MO, USA) microplate cell viability assay. The anticancer activity of the investigated compounds was evaluated in vitro on the basis of their ability to inhibit the proliferation of various cancer cells. Exponentially growing cells were seeded a day before the experiment into a 96-well microplate (Nunc, Roskilde, Denmark) at a density up to 6–8 × 10^3 cells/mL (depending on the cell line) and exposed to the test compounds at a wide range of concentrations for 48 h. Subsequently, various concentrations of the studied compounds (10^−7–10^−5 M) freshly prepared in DMSO (final concentration of <0.1% DMSO) and diluted with complete culture medium were added. After 48 h incubation, the cells were immediately subjected to a cell viability assay. At this time point, the number of viable cells in each well was estimated by the MTT test. Briefly, 50 µL (5 mg/mL final concentration) of MTT was added to each microplate well. This procedure was then followed by a three- to four-hour incubation at 37 °C. After incubation, MTT solution was replaced with 100 µL DMSO/well, which solubilized the formazan crystals formed by the dehydrogenases of metabolically active cells. Purple formazan absorbance was measured spectrophotometrically at 570 nm.

NALM6 = test: MTT cytotoxicity, NALM6; type: cell-based, human; conditions: read-out: Cytotoxic effect, IC50
Method: as §1, §2

SW620 = test: MTT cytotoxicity, SW620; type: cell-based, human; conditions: read-out: Cytotoxic effect, IC50
Method: as §1, §2

HL60 = test: MTT cytotoxicity, HL60; type: cell-based, human; conditions: read-out: Cytotoxic effect, IC50
Method: as §1, §2

MCF7 = test: MTT cytotoxicity, MCF7; type: cell-based, human; conditions: 48 h incubation, read-out: Cytotoxic effect, IC50
Method: as §1, §2

LoVo = test: MTT cytotoxicity, LoVo; type: cell-based, human; conditions: 48 h incubation, read-out: Cytotoxic effect, IC50
Method: as §1, §2

[1] = tested on: human microvascular endothelial cell line HMEC1; test: MTT cytotoxicity, normal endothelial cells HMEC1; type: cell-based; conditions: for IC50: HMEC1 normal endothelial cells, 48 h incubation, read-out: Cytotoxic effect, IC50; for IC50 for HMEC-1 higher than for cancer cells (selectivity): HMEC-1 vs cancer cells
Method: as §1, §2

Ishikawa = test: MTT cytotoxicity, Ishikawa; type: cell-based, human; conditions: 48 h incubation, read-out: Cytotoxic effect, IC50
Method: as §1, §2

A549 = test: MTT cytotoxicity, A549; type: cell-based, human; conditions: 48 h incubation, read-out: Cytotoxic effect, IC50
Method: as §1, §2

HCC38 = test: MTT cytotoxicity, HCC38; type: cell-based, human; conditions: 48 h incubation, read-out: Cytotoxic effect, IC50
Method: as §1, §2

Caco2 = test: MTT cytotoxicity, Caco2; type: cell-based, human; conditions: read-out: Cytotoxic effect, IC50
Method: as §1, §2

Hela = test: MTT cytotoxicity, Hela; type: cell-based, human; conditions: 48 h incubation, read-out: Cytotoxic effect, IC50
Method: as §1, §2

Colo205 = test: MTT cytotoxicity, Colo205; type: cell-based, human; conditions: read-out: Cytotoxic effect, IC50
Method: as §1, §2

HT29 = test: MTT cytotoxicity, HT29; type: cell-based, human; conditions: read-out: Cytotoxic effect, IC50
Method: as §1, §2

WM115 = test: MTT cytotoxicity, WM115; type: cell-based, human; conditions: read-out: Cytotoxic effect, IC50
Method: as §1, §2

HEC1A = test: MTT cytotoxicity, HEC1A; type: cell-based, human; conditions: 48 h incubation, read-out: Cytotoxic effect, IC50
Method: as §1, §2

Lipophilicity by RP-TLC = type: physicochemical; design: key: RM = log(1/Rf − 1), Rf = a/b; conditions: eluent AcCN: H2O at 30–70% v/v, 22 °C
Method: All the experimental solutions of standard substances (0.1 mg/mL) were prepared by dissolving ligands (1a–1d) or ruthenium complexes (2a/3a–2d/3d) in ethanol. Commercially-available octadecyl-modified silica aluminum sheets (20 × 20 cm) were cut into 5 × 10 cm plates. The plates were manually spotted with 1.0 μL of freshly prepared solutions using automatic pipets, 5 mm from each edge. The chromatograms for all compounds (1a/2a/3a–1d/2d/3d) were developed using a horizontal developing chamber and the solvent migration distance was about 4.5 cm. The plates were visually inspected under UV light at 254 nm. Each zone was clearly marked and its distance was manually measured. The RP-TLC analyses of lipophilicity were performed at ambient temperature (22 °C). In this experiment, all measurements were performed in triplicate and the obtained results were used in further calculations. The acetonitrile and water mixtures for ligands 1a–1d and arene–ruthenium(II) complexes 2a/3a–2d/3d were used as mobile phases, with […] content increasing in the range of 30–70% v/v, at 5% intervals. Values of the chromatographic retention coefficient Rf (as shown Formula (1)) and RM (as shown Formula (2)), based on received chromatograms, were calculated and converted as follows:(1) Rf=a/b (2) RM=log1/Rf−1

Row | Lipophilicity, RM (Lipophilicity by RP-TLC) | SMILES | IC50 (Hep 3b) | IC50 (NALM6; 48 h incubation) | IC50 (SW620; 48 h incubation) | IC50 (HL60; 48 h incubation) | IC50 (MCF7) | IC50 (LoVo) | IC50 [1] | IC50 for HMEC-1 higher than for cancer cells (selectivity) [1] | IC50 (Ishikawa) | IC50 (A549) | IC50 (HCC38) | IC50 (Caco2; 48 h incubation) | IC50 (Hela) | IC50 (Colo205; 48 h incubation) | IC50 (HT29; 48 h incubation) | IC50 (WM115; 48 h incubation) | IC50 (HEC1A) | other results
1 | 2.55 | Cc1cc(C)n(C(N)=S)n1.Cc1ccc(C(C)C)cc1.F[P-](F)(F)(F)(F)F.[Cl-].[Ru+2] [3a] | 55.3 ± 2.6 µM | 46.1 ± 5.1 µM | 63.9 ± 2.7 µM | 79.7 ± 7.2 µM | > 200 µM | 127 ± 3.7 µM | > 200 µM | 3–5 times | > 200 µM | > 200 µM | > 200 µM | 107 ± 8.4 µM | 98.7 ± 7.4 µM | 59.6 ± 3.4 µM | 123 ± 3.9 µM | 64.1 ± 5.1 µM | 77.2 ± 4.4 µM | –
2 | 2.40 | Cc1cc(C)n(C(N)=S)n1.Cc1ccc(C(C)C)cc1.[Cl-].[Cl][Ru+] [2a] | > 200 µM | 51.6 ± 5.7 µM | 118 ± 6.1 µM | 88.9 ± 6.1 µM | > 200 µM | > 200 µM | 156 ± 4.9 µM | 3–5 times | 90.7 ± 3.7 µM | 121 ± 3.6 µM | 84.4 ± 1.1 µM | > 200 µM | > 200 µM | 110 ± 6.7 µM | 111 ± 4.9 µM | 60.2 ± 6.3 µM | 62.3 ± 0.9 µM | –
3 | 2.32 | Cc1cc(C)n(C(N)=S)n1 [1a] | – | – | – | – | – | – | – | – | – | – | – | – | – | – | – | – | – | IC50 (Hep 3b; Homo sapiens, Hep3B): > 200 µM; IC50 (NALM6; Homo sapiens, NALM-6, 48 h incubation): > 200 µM; IC50 (SW620; Homo sapiens, SW-620, 48 h incubation): > 200 µM; IC50 (HL60; Homo sapiens, HL-60, 48 h incubation): > 200 µM; IC50 (MCF7; Homo sapiens): > 200 µM; IC50 (LoVo; Homo sapiens): > 200 µM; IC50 (Ishikawa; Homo sapiens): 124 ± 4.8 µM; IC50 (A549; Homo sapiens): > 200 µM; IC50 (HCC38; Homo sapiens): > 200 µM; IC50 (Caco2; Homo sapiens, Caco-2, 48 h incubation): > 200 µM; IC50 (Hela; Homo sapiens): > 200 µM; IC50 (Colo205; Homo sapiens, COLO 205, 48 h incubation): > 200 µM; IC50 (HT29; Homo sapiens, HT-29, 48 h incubation): > 200 µM; IC50 (WM115; Homo sapiens, WM-115, 48 h incubation): > 200 µM; IC50 (HEC1A; Homo sapiens, HEC-1-A): 111 ± 9.6 µM
4 | 2.59 | CCc1cc(CC)n(C(N)=S)n1.Cc1ccc(C(C)C)cc1.[Cl-].[Cl][Ru+] [2b] | > 200 µM | 40 ± 5.6 µM | 107 ± 3.4 µM | 80.8 ± 3.9 µM | 82.7 ± 3 µM | 59.7 ± 3.2 µM | 125 ± 2.1 µM | 3–5 times | 51.4 ± 1.9 µM | > 200 µM | 63.7 ± 4.4 µM | > 200 µM | 164 ± 8.5 µM | 115 ± 4.1 µM | 107 ± 5.9 µM | 54.9 ± 5.9 µM | 36.4 ± 1.7 µM | –
